Drawing on patent US20050250822A1, “Substituted benzanilide compound and noxious organism controlling agent” (priority 2002, published 2005), this text covers pest or weed control for 23 molecules.

Where two headings read alike, the source gives them in different places.

In assay [1] the test system is Common cutworms (Spodoptera litura) with second instar larvae. As to the kind of experiment: Insecticidal test against common cutworm (leaf dip). The class given is in vivo. Particulars: foliar, 144 h, read-out: insecticidal rate (rate of dead insects). As to the method: Insecticidal Test Against Common Cutworm
(§1) A 10% emulsifiable concentrate (depending on the compounds, 25% wettable powder was applied for the test) of the compound of the present invention was diluted with water containing a spreading agent to prepare a chemical solution with a concentration of 100 ppm. To the chemical solution was dipped leaves of Chinese olive for about 10 seconds, and after air-drying, they were placed in a laboratory dish, then, 10 Common cutworms (Spodoptera litura) with second instar larvae per the dish were released therein, and the dish was covered with a lid having holes and contained at a thermostat chamber at 25° C. A number of dead insect(s) after 6 days was counted and a rate of dead insects was calculated by the following calculation formula. Incidentally, the test was carried out with two districts. Rate of dead insects (%)=(Number of dead insects/Number of released insects)×100

Assay [2] concerns diamondback moths (Plutella xylostella) with second instar larvae. The assay can be described thus: Insecticidal test against diamondback moth (leaf dip). Particulars: foliar, 144 h, read-out: insecticidal rate (rate of dead insects). The class given is in vivo. As to the method: Insecticidal Test Against Diamondback Moth
as §1, with “diamondback moths (Plutella xylostella)” for “Common cutworms (Spodoptera litura)”, “in” for “by”, “same manner as in Test Example 1.” for “following calculation formula.”, “districts.” for “districts. Rate of dead insects (%)=(Number of dead insects/Number of released insects)×100”

[3] abbreviates: chemical solution 100 ppm, leaf dip, 25° C., dead insects counted after 6 days.

Consider `CC1=NOC(c2ccc(NC(=O)c3cccc(I)c3C(=O)NC(C)C)c(C)c2)(C(F)(F)F)C1` (stereo not drawn) [1-006, 3-Iodo-N^2-isopropyl-N^1-[2-methyl-4-(3-methyl-5-trifluoromethyl-4,5-dihydroisoxazol-5-yl)phenyl]phthalic diamide], for which the pest or weed control at 100 ppm in assay [1] (setting [3]) and in assay [2] (setting [3]) was no less than 80% throughout.
Turning to `CC1=NOC(c2ccc(NC(=O)c3c(I)cccc3C(=O)NC(C)C)c(C)c2)(C(F)(F)F)C1` (stereo not drawn) [1-007, 6-iodo-N^2-isopropyl-N^1-[2-methyl-4-(3-methyl-5-trifluoromethyl-4,5-dihydroisoxazol-5-yl)phenyl]phthalic diamide], the pest or weed control at 100 ppm in assay [2] (setting [3]) is no less than 80%.
Still for that read-out and setting: next, `Cc1cc(C2(C(F)(F)F)CC(C(F)(F)F)=NO2)ccc1NC(=O)c1cccc(I)c1C(=O)NC(C)C` (stereo not drawn) [1-013, 3-Iodo-N^2-isopropyl-N^1-[2-methyl-4-(3,5-bistrifluoromethyl-4,5-dihydroisoxazol-5-yl)phenyl]phthalic diamide]: no less than 80%; `CCOC(=O)C1=NOC(c2ccc(NC(=O)c3c(I)cccc3C(=O)NC(C)C)c(C)c2)(C(F)(F)F)C1` (stereo not drawn) [1-020, N^1-[4-(3-ethoxycarbonyl-5-trifluoromethyl-4,5-dihydroisoxazol-5-yl)-2-methylphenyl]-6-iodo-N^2-isopropylphthalic diamide]: no less than 80%.
Take `Cc1cc(C2(C(F)(F)F)CC(n3cncn3)=NO2)ccc1NC(=O)c1cccc(I)c1C(=O)NC(C)C` (stereo not drawn) [1-032, 3-Iodo-N^2-isopropyl-N^1-[4-[3-(1,2,4-triazol-1-yl)-5-trifluoromethyl-4,5-dihydroisoxazol-5-yl]-2-methylphenyl]phthalic diamide]: the pest or weed control at 100 ppm in assay [1] (setting [3]) and in assay [2] (setting [3]) was no less than 80% throughout.
On to `Cc1cc(C2(C3CC3)CC(c3ccc(Cl)cc3)=NO2)ccc1NC(=O)c1cccc(I)c1C(=O)NC(C)C` (stereo not drawn) [2-013, N^1-[4-[3-(4-chlorophenyl)-5-cyclopropyl-4,5-dihydroisoxazol-5-yl]-2-methylphenyl]-3-iodo-N 2-isopropylphthalic diamide], for which the pest or weed control at 100 ppm in assay [1] (setting [3]) and in assay [2] (setting [3]) was no less than 80% in each case.
For `Cc1cc(C2(C(F)(F)F)CC(c3ccc(F)cc3)=NO2)ccc1NC(=O)c1cccc(I)c1C(=O)NC(C)C` (stereo not drawn) [2-016, N^1-[4-[3-(4-fluorophenyl)-5-trifluoromethyl-4,5-dihydroisoxazol-5-yl]-2-methylphenyl]-3-iodo-N^2-isopropylphthalic diamide], the pest or weed control at 100 ppm in assay [1] (setting [3]) and in assay [2] (setting [3]) was no less than 80% in each case.
As to `Cc1cc(C2(C(F)(F)F)CC(c3ccc([S+](C)[O-])cc3)=NO2)ccc1NC(=O)c1cccc(I)c1C(=O)NC(C)C` (stereo not drawn) [2-037, 3-Iodo-N 2 isopropyl-N^1-[4-[3-(4-methylsulfinylphenyl)-5-trifluoromethyl-4,5-dihydroisoxazol-5-yl]-2-methylphenyl]phthalic diamide], the pest or weed control at 100 ppm in assay [1] (setting [3]) and in assay [2] (setting [3]) was no less than 80% throughout.
Regarding `Cc1cc(C2(C(F)(F)F)CC(c3ccc(C#N)cc3)=NO2)ccc1NC(=O)c1cccc(I)c1C(=O)NC(C)C` (stereo not drawn) [2-046, N^1-[4-[3-(4-cyanophenyl)-5-trifluoromethyl-4,5-dihydroisoxazol-5-yl]-2-methylphenyl]-3-iodo-N^2-isopropylphthalic diamide], the pest or weed control at 100 ppm in assay [1] (setting [3]) and in assay [2] (setting [3]) was no less than 80% each time.
Regarding `Cc1cc(C2(C(F)(F)F)CC(c3ccc(C(N)=O)cc3)=NO2)ccc1NC(=O)c1cccc(I)c1C(=O)NC(C)C` (stereo not drawn) [2-048, N^1-[4-[3-(4-carbamoylphenyl)-5-trifluoromethyl-4,5-dihydroisoxazol-5-yl]-2-methylphenyl]-3-iodo-N^2-isopropylphthalic diamide], the pest or weed control at 100 ppm in assay [1] (setting [3]) and in assay [2] (setting [3]) was no less than 80% in each case.
Turning to `Cc1cc(C2(C(F)(F)C(F)(F)C(F)(F)F)CC(c3ccc(Cl)cc3)=NO2)ccc1NC(=O)c1cccc(I)c1C(=O)NC(C)C` (stereo not drawn) [2-059, N^1-[4-[3-(4-chlorophenyl)-5-heptafluoropropyl-4,5-dihydroisoxazol-5-yl]-2-methylphenyl]-3-iodo-N^2-isopropylphthalic diamide], the pest or weed control at 100 ppm in assay [1] and in assay [2] was no less than 80% throughout.
Consider `CSCC(C)NC(=O)c1c(I)cccc1C(=O)Nc1ccc(C2(C(F)(F)F)CC(c3ccc(Cl)cc3)=NO2)cc1C` (stereo not drawn) [2-095, N^1-[4-[3-(4-chlorophenyl)-5-trifluoromethyl-4,5-dihydroisoxazol-5-yl]-2-methylphenyl]-3-iodo-N^2-(1-methyl-2-methylthioethyl)phthalic diamide], for which the pest or weed control at 100 ppm in assay [1] (setting [3]) and in assay [2] (setting [3]) was no less than 80% each time.
As to `CCN(CC)C(=O)c1c(I)cccc1C(=O)Nc1ccc(C2(C(F)(F)F)CC(c3ccc(S(C)(=O)=O)cc3)=NO2)cc1C` (stereo not drawn) [2-162, N^2, N^2-diethyl-3-iodo-N^1-[4-[3-(4-methylsulfonylphenyl)-5-trifluoromethyl-4,5-dihydroisoxazol-5-yl]-2-methylphenyl]phthalic diamide], in assay [2] (setting [3]), the pest or weed control at 100 ppm was no less than 80%.
In the case of `Cc1cc(C2(C(F)(F)F)CC(c3ccc(F)cc3)=NO2)ccc1NC(=O)c1cccc([N+](=O)[O-])c1C(=O)NC(C)C` (stereo not drawn) [2-167, N^1-[4-[3-(4-fluorophenyl)-5-trifluoromethyl-4,5-dihydroisoxazol-5-yl]-2-methylphenyl]-3-nitro-N^2-isopropylphthalic diamide], the pest or weed control at 100 ppm in assay [1] (setting [3]) and in assay [2] (setting [3]) was no less than 80% each time.
With `Cc1cc(C2(C(F)(F)F)CC(c3ccc(F)cc3)=NO2)ccc1NC(=O)c1cccc(N)c1C(=O)NC(C)C` (stereo not drawn) [2-170, 3-Amino-N^1-[4-[3-(4-fluorophenyl)-5-trifluoromethyl-4,5-dihydroisoxazol-5-yl]-2-methylphenyl]-N^2-isopropylphthalic diamide], the pest or weed control at 100 ppm in assay [1] (setting [3]) and in assay [2] (setting [3]) was no less than 80% throughout.
For the molecule `CC1=NOC(c2ccc(Cl)cc2)(c2ccc(NC(=O)c3cccc(I)c3C(=O)NC(C)C)c(C)c2)C1` (stereo not drawn) [3-006, N^1-[4-[5-(4-chlorophenyl)-3-methyl-4,5-dihydroisoxazol-5-yl]-2-methylphenyl]-3-iodo-N^2-isopropylphthalic diamide], the pest or weed control at 100 ppm in assay [1] (setting [3]) and in assay [2] (setting [3]) was no less than 80% each time.
As for `Cc1cc(C2(C(F)(F)F)CC(C#N)=C(c3ccccc3)O2)ccc1NC(=O)c1cccc(I)c1C(=O)NC(C)C` (stereo not drawn) [4-01, N^1-[4-(3-cyano-2-phenyl-5-trifluoromethyl-4,5-dihydrofuran-5-yl)-2-methylphenyl]-3-iodo-N 2-isopropylphthalic diamide], the pest or weed control at 100 ppm in assay [2] (setting [3]) was no less than 80%.
As to `Cc1cc(C2(C(F)(F)F)CN=C(c3ccc(Cl)cc3)S2)ccc1NC(=O)c1cccc(I)c1C(=O)NC(C)C` (stereo not drawn) [4-04, N^1-[4-[2-(4-chlorophenyl)-5-trifluoromethyl-4,5-dihydrothiazol-5-yl]-2-methylphenyl]-3-iodo-N^2-isopropylphthalic diamide], the pest or weed control at 100 ppm in assay [1] (setting [3]) and in assay [2] (setting [3]) was no less than 80% throughout.
In the case of `Cc1cc(C2(C(F)(F)F)ON=C(c3ccc(F)cc3)O2)ccc1NC(=O)c1cccc(I)c1C(=O)NC(C)C` (stereo not drawn) [4-05, N^1-[4-[3-(4-fluorophenyl)-5-trifluoromethyl-1,4,2-dioxazolin-5-yl]-2-methylphenyl]-3-iodo-N 2-isopropylphthalic diamide], the pest or weed control at 100 ppm in assay [1] (setting [3]) and in assay [2] (setting [3]) was no less than 80% throughout.
For `CC1=NN(c2ccc(Cl)cc2)C(c2ccc(NC(=O)c3cccc(I)c3C(=O)NC(C)C)c(C)c2)C1` (stereo not drawn) [6-02, N^1-[4-[1-(4-chlorophenyl)-3-methyl-4,5-dihydropyrazol-5-yl]-2-methylphenyl]-3-iodo-N^2-isopropylphthalic diamide], the pest or weed control at 100 ppm in assay [2] (setting [3]) is no less than 80%.
As for `Cc1cc(C2(C(F)(F)F)CC(c3ccc(Cl)cc3)=NN2C)ccc1NC(=O)c1cccc(I)c1C(=O)NC(C)C` (stereo not drawn) [6-04, N^1-[4-[3-(4-chlorophenyl)-1-methyl-5-trifluoromethyl-4,5-dihydropyrazol-5-yl]-2-methylphenyl]-3-iodo-N^2-isopropylphthalic diamide], the pest or weed control at 100 ppm in assay [1] (setting [3]) and in assay [2] (setting [3]) was no less than 80% each time.
Consider `Cc1cc(C2(C(F)(F)F)OCC(c3ccc(Cl)cc3)O2)ccc1NC(=O)c1cccc(I)c1C(=O)NC(C)C` (stereo not drawn) [7-03, N^1-[4-[4-(4-chlorophenyl)-2-trifluoromethyl-1,3-dioxolan-2-yl]-2-methylphenyl]-3-iodo-N^2-isopropylphthalic diamide], for which the pest or weed control at 100 ppm in assay [1] (setting [3]) and in assay [2] (setting [3]) was no less than 80% each time.
Regarding `Cc1cc(C2(C(F)(F)F)OCC(c3ccc(Cl)cc3)S2)ccc1NC(=O)c1cccc(I)c1C(=O)NC(C)C` (stereo not drawn) [7-09, N^1-[4-[4-(4-chlorophenyl)-2-trifluoromethyl-1,3-oxathiolan-2-yl]-2-methylphenyl]-3-iodo-N^2-isopropylphthalic diamide], the pest or weed control at 100 ppm in assay [2] (setting [3]) was no less than 80%.
